This note sets out measurements from US9079152B2, “Encapsulated essential oils” (BEN GURION UNIVERSITY OF THE NEGEV RESEARCH AND DEVELOPMENT …, priority 2004, dated 2015).

For this series, the system named is mosquito larvae. The experiment in a line: Comparison tests of cyromazine for larvicidal activity. Conditions: 0.5 g/m^2 of cyromazine; after 3 days. Type of series: in vivo. As for the experimental part: Tests with cyromazine, an insect growth regulator produced by Novartis, was tested for larvicidal activity, either as such or in encapsulated form An effective concentration of 0.5 g/m^2 of cyromazine gave 60% mortality after 3 days, and the best sustained-release formulation gave. 100% mortality after 8 days.

Each structure is given as a SMILES string.

Broadly, the mortality is the share of the test organisms that died. Low values mean more survivors, high ones fewer survivors.

Regarding `Nc1nc(N)nc(NC2CC2)n1` [cyromazine], the mortality came to 60%.
